Assay results taken from US20230373929A1, “FUSED RING DIIMIDE DERIVATIVE, PREPARATION METHOD AND USE THEREOF” (XIANGBEI WELMAN PHARMACEUTICAL CO., LTD., priority 2020, published 2023).
Where two headings read alike, the source gives them in different places.

Columns and labels:
[1] = tested on: human lung cancer cells A549; test: anti-proliferative activity against tumor cells, resazurin assay, A549; format: cell-based; details: read-out: IC50 Grades of Inhibitory Effects of Compounds on Tumor Cells, A549
Method: (§1) Objective: To test the anti-proliferative activity of the compound of the present disclosure against various tumor cells.
(§2) Test cells: human colon cancer cells (HT-29, COLO 205), human lung cancer cells (NCI-H460, A549) and human leukemia cells (HL-60, U-937).
(§3) Test method: each tumor cell was tested separately. Cells were incubated in medium at […] for 24 hours before use. The cells growing in an exponential growth phase were harvested and treated with trypsin to prepare a cell suspension, the cell suspension was centrifuged, then the cell pellet was resuspended in a small amount of fresh medium as a cell stock. The cell stock was diluted to required cell concentrations.
(§4) The test was carried out on 96-well plates; blank control groups, cell control groups and compound treatment groups were set up. In the blank control groups, only 10% PBS was added to each well, while in the cell control groups and the compound treatment groups, 100 μL of cells at the above concentration were added to each well, and then each well was filled with 200 μL of 10% PBS. The plates were placed in an incubator overnight. In the compound treatment groups, 100 μL of each test compound at different dilution concentrations was added to each well, the dilution concentrations of the compounds are as shown in Table 2.
(§5) After the addition of the drug to each well was completed, the plates were cultured in an incubator for 96 hours, 22 μL of resazurin sodium solution (Alarm blue, SIGMA R7017) was added to each well. The plates were returned to the incubator for another 4 hours of incubation and then shaken for 10 seconds after being taken out. The fluorescence value of each well were recorded at 530/590 nm.
(§6) The above operations were repeated three times.
(§7) The IC50 value of each test compound was calculated by Prism7 software. IC50 was divided into different grades according to values, that is, SS: <1 μM; S: 1-5 μM; A: 5-10 μM; B: 11-20 μM; C: 21-50 μM; D: 51-100 μM; E: >100 μM.

[2] = tested on: human colon cancer cells HT-29; test: anti-proliferative activity against tumor cells, resazurin (Alamar blue) assay, HT-29; format: cell-based; details: read-out: IC50 Grades of Inhibitory Effects of Compounds on Tumor Cells, HT-29
Method: as §1, §2, §3, §4, §5, §6, §7

[3] = tested on: human lung cancer cells NCI-H460; test: anti-proliferative activity against tumor cells, resazurin assay, NCI-H460; format: cell-based; details: read-out: IC50 Grades of Inhibitory Effects of Compounds on Tumor Cells, NCI-H460
Method: as §1, §2, §3, §4, §5, §6, §7

[4] = tested on: human leukemia cells U-937; test: anti-proliferative activity against tumor cells, resazurin assay, U-937; format: cell-based; details: read-out: IC50 Grades of Inhibitory Effects of Compounds on Tumor Cells, U-937
Method: as §1, §2, §3, §4, §5, §6, §7

[5] = tested on: human colon cancer cells COLO 205; test: anti-proliferative activity against tumor cells, resazurin assay, COLO 205; format: cell-based; details: read-out: IC50 Grades of Inhibitory Effects of Compounds on Tumor Cells, COLO205
Method: as §1, §2, §3, §4, §5, §6, §7

[6] = tested on: human leukemia cells HL-60; test: anti-proliferative activity against tumor cells, resazurin assay, HL-60; format: cell-based; details: read-out: IC50 Grades of Inhibitory Effects of Compounds on Tumor Cells, HL-60
Method: as §1, §2, §3, §4, §5, §6, §7

colon cancer cells = test: anti-proliferative activity, colon cancer cells; format: cell-based, human; details: versus similar compounds (Compound 1d, Compound 1)
Method: as §1, §2, §3
(§8) The test was carried out on 96-well plates; blank control groups, cell control groups and compound treatment groups were set up. In the blank control groups, only 10% PBS was added to each well, while in the cell control groups and the compound treatment groups, 100 μL of cells at the above concentration were added to each well, and then each well was filled with 200 μL of 10% PBS. […]
(§9) After the addition of the drug to each well was completed, the plates were cultured in an incubator for 96 hours, 22 μL of resazurin sodium solution (Alarm blue, SIGMA R7017) was added to each well. […] The fluorescence value of each well were recorded at 530/590 nm.
(§10) The IC50 value of each test compound was calculated by Prism7 software. […]

tumor cells = test: anti-proliferative activity, overall comparison over all tumor cells; format: cell-based, human; details: all tested tumor cells, under the test condition of the present disclosure
Method: as §1, §2, §3, §8, §9, §10

[7] = Homo sapiens, A549, 96 hours culture, resazurin fluorescence 530/590 nm
[8] = Homo sapiens, HT-29, 96 hours culture, resazurin fluorescence 530/590 nm
[9] = Homo sapiens, NCI-H460, 96 hours culture, resazurin fluorescence 530/590 nm
[10] = Homo sapiens, U-937, 96 hours culture, resazurin fluorescence 530/590 nm
[11] = Homo sapiens, COLO 205, COLO205, 96 hours culture, resazurin fluorescence 530/590 nm
[12] = Homo sapiens, HL-60, 96 hours culture, resazurin fluorescence 530/590 nm

Structure (SMILES)	IC50 ([1]; Homo sapiens, A549, 96 h) [µM]	IC50 ([2]; Homo sapiens, HT-29, 96 h) [µM]	IC50 ([3]; Homo sapiens, NCI-H460, 96 h) [µM]	IC50 ([4]; Homo sapiens, U-937, 96 h) [µM]	IC50 ([5]; Homo sapiens, COLO 205, 96 h) [µM]	IC50 ([6]; Homo sapiens, HL-60, 96 h) [µM]	IC50 [1, 7] [µM]	IC50 [2, 8] [µM]	IC50 [3, 9] [µM]	IC50 [4, 10] [µM]	IC50 [5, 11] [µM]	IC50 [6, 12] [µM]	further results
O=C(NCCNCCCCN1C(=O)c2cccc3cccc(c23)C1=O)N(CCl)CCl [Compound I-01]	1 to 5	1 to 5	5 to 10	1 to 5	1 to 5	5 to 10							
CCSC(=O)OCCCCOCN1C(=O)c2cccc3c(C)c4ccccc4c(c23)C1=O [Compound I-12]							5 to 10	5 to 10	5 to 10	11 to 20	5 to 10	11 to 20	
CN(N=O)C(=O)NCCCCCCNCN1C(=O)c2cccc3c2c(cc2ccc(C#N)cc23)C1=O [Compound I-17]							1 to 5	1 to 5	1 to 5	1 to 5	5 to 10	5 to 10	
CC(C)(C)OC(=O)N1CCN(CCCN2C(=O)c3ccc4c5cccc6c(Br)ccc(c7ccc(c3c47)C2=O)c65)CC1 [Compound I-18]							5 to 10	5 to 10	5 to 10	11 to 20	11 to 20	5 to 10	
COc1ccc2cc3c(cc2c1)C(=O)N(COCCN(OC)C(=O)N(C)C)C3=O [Compound I-08]							5 to 10	11 to 20	5 to 10	5 to 10	5 to 10	5 to 10	
CN(C)C(=O)NCCN(CCCN1C(=O)c2cccc3cc4ccccc4c(c23)C1=O)[N+](=O)[O-] [Compound I-10]							5 to 10	5 to 10	1 to 5	5 to 10	1 to 5	1 to 5	
CON(C)C(=O)N(C)CCCCNCCN1C(=O)c2cccc3c(N(C)C)ccc(c23)C1=O [Compound I-05]							5 to 10	1 to 5	5 to 10	5 to 10	1 to 5	5 to 10	
CONC(=O)NCCN(CCCCN1C(=O)c2cccc3c2c(cc2ccoc23)C1=O)OC [Compound I-20]							1 to 5	5 to 10	5 to 10	5 to 10	5 to 10	5 to 10	
O=NN(CCCl)C(=O)NCCNCCCCN1C(=O)c2cccc3cccc(c23)C1=O [Compound I-04]	5 to 10	< 1	5 to 10	1 to 5	1 to 5	1 to 5							activity relative to that of similar compounds (colon cancer cells): 50 times
CN(C)CCN1C(=O)c2cccc3cc(N)cc(c23)C1=O [Amonafide, reference compound]							1 to 5	11 to 20	11 to 20	11 to 20	5 to 10	5 to 10	
O=NN(CCCl)C(=O)NCCN1C(=O)c2cccc3cc([N+](=O)[O-])cc(c23)C1=O [Compound 1, reference compound]	5 to 10	21 to 50	11 to 20	21 to 50	21 to 50	11 to 20							overall anti-tumor activity, comparison in words (tumor cells): inferior to that of Amonafide
CCN(C)C(=O)NCCN(CCN1C(=O)c2cccc3c2c(cc2ccccc23)C1=O)OC [Compound I-15]							5 to 10	1 to 5	1 to 5	1 to 5	5 to 10	5 to 10	
O=NN(CCCl)C(=O)NCCCCN1C(=O)c2cccc3cccc(c23)C1=O [Compound 1d, reference compound]	21 to 50	21 to 50	51 to 100	11 to 20	21 to 50	21 to 50							overall anti-tumor activity, comparison in words (tumor cells): inferior to that of Amonafide
O=NN(CCCl)C(=O)NCNCCN1C(=O)c2cccc3cc([N+](=O)[O-])cc(c23)C1=O [Compound I-03]	1 to 5	1 to 5	5 to 10	5 to 10	< 1	1 to 5							activity relative to that of similar compounds (colon cancer cells): 50 times
O=C(OCCOCCCCN1C(=O)c2cccc3cccc(c23)C1=O)N(CCl)CCl [Compound I-02]													IC50 ([1]; A549, 96 hours culture, resazurin fluorescence 530/590 nm): 5 to 10 µM; IC50 ([2]; HT-29, 96 hours culture, resazurin fluorescence 530/590 nm): 5 to 10 µM; IC50 ([3]; NCI-H460, 96 hours culture, resazurin fluorescence 530/590 nm): 5 to 10 µM; IC50 ([4]; U-937, 96 hours culture, resazurin fluorescence 530/590 nm): 5 to 10 µM; IC50 ([5]; COLO205, 96 hours culture, resazurin fluorescence 530/590 nm): 5 to 10 µM; IC50 ([6]; HL-60, 96 hours culture, resazurin fluorescence 530/590 nm): 5 to 10 µM
